In PMC7382816 (BMC Pharmacology & Toxicology, 2020):
Like-named read-outs stand apart in the source and are kept apart here.

How the values were obtained:
[1] = Single-dose pharmacokinetics in healthy volunteers under fasting and fed (high-fat breakfast) conditions, plasma concentrations by HPLC-MS, non-compartmental analysis; format: in vivo, human; set-up: Ke: unit not given here
Text: The bioequivalence clinical trials were phase I, randomized, open-label, crossover, single-centre, with two periods separated by a 7-day washout stage. Subjects were randomised to one of the two treatment sequences, RT or TR where R was the reference formulation and T was the test formulation. Each of the clinical trial was crossover for evaluation of a test formulation compared to a reference formulation either under fed or fasting conditions. […] The treatments were allocated in a balanced manner on every inclusion day (blocks of 4 subjects). Our study adheres to CONSORT guidelines. […] Sample processing, genotyping for CYP2C19 and drug quantification were performed according to Román et al. […] Pharmacokinetic parameters were estimated from the plasma concentration–time data by non-compartmental analysis (WinNonlin Professional, version 2.0., Pharsight Corporation, USA) as reported by Román et al. […] WinNonLin Professional software version 2.0 was used for the statistical analysis. Pharmacokinetic parameters were log-transformed, and AUC and Cmax were adjusted for dose and weight. The values of pharmacokinetic parameters were expressed as mean ± standard deviation.

[2] = review; ref [26] Swan et al.; cited from earlier work
[3] = Fed (high-fat breakfast), all subjects, single oral dose, mean ± SD
[4] = both sexes, human, plasma, oral, only CYP2C19*1/*1 subjects, Fast, men and women, mean ± SD
[5] = both sexes, human, plasma, oral, only CYP2C19*1/*1 subjects, Fed, men and women, mean ± SD
[6] = both sexes, human, plasma, po, Fast, all subjects, single oral dose, mean ± SD
[7] = both sexes, human, plasma, po, Fed (high-fat breakfast), all subjects, single oral dose, mean ± SD
[8] = female, human, plasma, oral, only CYP2C19*1/*1 subjects, Fast, women, mean ± SD
[9] = female, human, plasma, oral, only CYP2C19*1/*1 subjects, Fed, women, mean ± SD
[10] = female, human, plasma, po, Fast, women, single oral dose, mean ± SD
[11] = female, human, plasma, po, Fed, women, single oral dose, mean ± SD
[12] = male, human, plasma, oral, only CYP2C19*1/*1 subjects, Fast, men, mean ± SD
[13] = male, human, plasma, oral, only CYP2C19*1/*1 subjects, Fed, men, mean ± SD
[14] = male, human, plasma, po, Fast, men, single oral dose, mean ± SD
[15] = male, human, plasma, po, Fed, men, single oral dose, mean ± SD

COCCCOc1ccnc(C[S+]([O-])c2nc3ccccc3[nH]2)c1C (centres unmarked) [Rabeprazole, rabeprazole]
Ke ([1]; Fast, all subjects, single oral dose, mean ± SD): 0.60 ± 0.20 | Ke ([1]; Fast, men, single oral dose, mean ± SD): 0.64 ± 0.20 | Ke ([1]; Fast, women, single oral dose, mean ± SD): 0.56 ± 0.20 | Cmax [1, 3]: 675.8 ± 218.8 ng/mL | Ke [1, 3]: 0.42 ± 0.22 | Ke ([1]; Fed, men, single oral dose, mean ± SD): 0.38 ± 0.17 | Ke ([1]; Fed, women, single oral dose, mean ± SD): 0.48 ± 0.27 | AUC(0-inf) [1, 4]: 901 ± 235 ng·h/mL | CL/F [1, 4]: 6.17 mL/min/kg | Vd/F [1, 4]: 0.6 ± 0.11 L/kg | half-life [1, 4]: 1.3 ± 0.6 h | Cmax ([1]; both sexes, human, plasma, oral, only CYP2C19*1/*1 subjects, Fast, men and women, mean ± SD, read-out: Cmax): 536 ± 138 ng/mL | Tmax ([1]; both sexes, human, plasma, oral, only CYP2C19*1/*1 subjects, Fast, men and women, mean ± SD, read-out: Tmax): 3.9 ± 0.8 h | AUC(0-inf) [1, 5]: 969 ± 388 ng·h/mL | CL/F [1, 5]: 6.33 mL/min/kg | Vd/F [1, 5]: 0.92 ± 0.34 L/kg | half-life [1, 5]: 2 ± 0.9 h | Cmax ([1]; both sexes, human, plasma, oral, only CYP2C19*1/*1 subjects, Fed, men and women, mean ± SD, read-out: Cmax): 606 ± 207 ng/mL | Tmax ([1]; both sexes, human, plasma, oral, only CYP2C19*1/*1 subjects, Fed, men and women, mean ± SD, read-out: Tmax): 9.1 ± 3.3 h | Tmax ([1]; both sexes, human, plasma, oral, under fasting conditions, range among subjects, read-out: Tmax range): 2 to 7 h | Tmax ([1]; both sexes, human, plasma, oral, under fed conditions, range among subjects, read-out: Tmax range): 3 to 20 h | AUC(0-inf) [1, 6]: 972 ± 361 ng·h/mL | CL/F [1, 6]: 5.83 mL/min/kg | Vd/F [1, 6]: 0.6 ± 0.17 L/kg | half-life [1, 6]: 1.3 ± 0.5 h | Cmax ([1]; both sexes, human, plasma, po, Fast, all subjects, single oral dose, mean ± SD, read-out: Cmax): 556 ± 176 ng/mL | Tmax ([1]; both sexes, human, plasma, po, Fast, all subjects, single oral dose, mean ± SD, read-out: Tmax): 3.7 ± 0.9 h | AUC(0-inf) [1, 7]: 1050 ± 382 ng·h/mL | CL/F [1, 7]: 5.67 mL/min/kg | Vd/F [1, 7]: 0.91 ± 0.45 L/kg | half-life [1, 7]: 2.2 ± 1.3 h | Tmax ([1]; both sexes, human, plasma, po, Fed (high-fat breakfast), all subjects, single oral dose, mean ± SD, read-out: Tmax): 7.2 ± 2.6 h | difference in AUC between men and women ([1]; effect of sex (CYP2C19*1/*1 subjects, fed conditions)): around 5% | Cmax higher under fed conditions ([1]; fed vs fasting, all subjects): 21% | Delay of mean Tmax (absorption) by food ([1]; fed vs fasting, all subjects): about 3.5 h | half-life higher under fed conditions ([1]; fed vs fasting, all subjects): 66% | Delay of Tmax by food ([1]; fed vs fasting, only subjects with CYP2C19*1/*1): 5.2 h | AUC(0-inf) [1, 8]: 932 ± 172 ng·h/mL | CL/F [1, 8]: 6.83 mL/min/kg | Vd/F [1, 8]: 0.61 ± 0.12 L/kg | half-life [1, 8]: 1.1 ± 0.2 h | Cmax ([1]; female, human, plasma, oral, only CYP2C19*1/*1 subjects, Fast, women, mean ± SD, read-out: Cmax): 560 ± 136 ng/mL | Tmax ([1]; female, human, plasma, oral, only CYP2C19*1/*1 subjects, Fast, women, mean ± SD, read-out: Tmax): 3.8 ± 0.7 h | AUC(0-inf) [1, 9]: 944 ± 470 ng·h/mL | CL/F [1, 9]: 7.5 mL/min/kg | Vd/F [1, 9]: 0.85 ± 0.32 L/kg | half-life [1, 9]: 1.5 ± 0.9 h | Cmax ([1]; female, human, plasma, oral, only CYP2C19*1/*1 subjects, Fed, women, mean ± SD, read-out: Cmax): 634 ± 221 ng/mL | Tmax ([1]; female, human, plasma, oral, only CYP2C19*1/*1 subjects, Fed, women, mean ± SD, read-out: Tmax): 8.2 ± 0.6 h | AUC(0-inf) [1, 10]: 1120 ± 361 ng·h/mL | CL/F [1, 10]: 5.83 mL/min/kg | Vd/F [1, 10]: 0.65 ± 0.2 L/kg | half-life [1, 10]: 1.4 ± 0.5 h | Cmax ([1]; female, human, plasma, po, Fast, women, single oral dose, mean ± SD, read-out: Cmax): 638 ± 177 ng/mL | Tmax ([1]; female, human, plasma, po, Fast, women, single oral dose, mean ± SD, read-out: Tmax): 3.7 ± 0.9 h | AUC(0-inf) [1, 11]: 1050 ± 420 ng·h/mL | CL/F [1, 11]: 6.33 mL/min/kg | Vd/F [1, 11]: 0.92 ± 0.37 L/kg | half-life [1, 11]: 2 ± 1.3 h | Cmax ([1]; female, human, plasma, po, Fed, women, single oral dose, mean ± SD, read-out: Cmax): 728 ± 284 ng/mL | Tmax ([1]; female, human, plasma, po, Fed, women, single oral dose, mean ± SD, read-out: Tmax): 7.6 ± 2 h | AUC(0-inf) [1, 12]: 870 ± 296 ng·h/mL | CL/F [1, 12]: 5.5 mL/min/kg | Vd/F [1, 12]: 0.59 ± 0.1 L/kg | half-life [1, 12]: 1.5 ± 0.7 h | Cmax ([1]; male, human, plasma, oral, only CYP2C19*1/*1 subjects, Fast, men, mean ± SD, read-out: Cmax): 512 ± 147 ng/mL | Tmax ([1]; male, human, plasma, oral, only CYP2C19*1/*1 subjects, Fast, men, mean ± SD, read-out: Tmax): 3.9 ± 1 h | AUC(0-inf) [1, 13]: 1000 ± 323 ng·h/mL | CL/F [1, 13]: 5 mL/min/kg | Vd/F [1, 13]: 1.02 ± 0.39 L/kg | half-life [1, 13]: 2.5 ± 0.7 h | Cmax ([1]; male, human, plasma, oral, only CYP2C19*1/*1 subjects, Fed, men, mean ± SD, read-out: Cmax): 572 ± 215 ng/mL | Tmax ([1]; male, human, plasma, oral, only CYP2C19*1/*1 subjects, Fed, men, mean ± SD, read-out: Tmax): 10.3 ± 5.1 h | AUC(0-inf) [1, 14]: 836 ± 313 ng·h/mL | CL/F [1, 14]: 5.83 mL/min/kg | Vd/F [1, 14]: 0.55 ± 0.11 L/kg | half-life [1, 14]: 1.2 ± 0.5 h | Cmax ([1]; male, human, plasma, po, Fast, men, single oral dose, mean ± SD, read-out: Cmax): 479 ± 140 ng/mL | Tmax ([1]; male, human, plasma, po, Fast, men, single oral dose, mean ± SD, read-out: Tmax): 3.6 ± 0.9 h | AUC(0-inf) [1, 15]: 1050 ± 361 ng·h/mL | CL/F [1, 15]: 5.17 mL/min/kg | Vd/F [1, 15]: 0.91 ± 0.52 L/kg | half-life [1, 15]: 2.3 ± 1.3 h | Cmax ([1]; male, human, plasma, po, Fed, men, single oral dose, mean ± SD, read-out: Cmax): 635 ± 145 ng/mL | Tmax ([1]; male, human, plasma, po, Fed, men, single oral dose, mean ± SD, read-out: Tmax): 6.9 ± 3 h | Ke ([1]; only CYP2C19*1/*1 subjects, Fast, men and women, mean ± SD): 0.63 ± 0.20 | Ke ([1]; only CYP2C19*1/*1 subjects, Fast, men, mean ± SD): 0.57 ± 0.25 | Ke ([1]; only CYP2C19*1/*1 subjects, Fast, women, mean ± SD): 0.68 ± 0.13 | Ke ([1]; only CYP2C19*1/*1 subjects, Fed, men and women, mean ± SD): 0.45 ± 0.23 | Ke ([1]; only CYP2C19*1/*1 subjects, Fed, men, mean ± SD): 0.30 ± 0.11 | Ke ([1]; only CYP2C19*1/*1 subjects, Fed, women, mean ± SD): 0.57 ± 0.25 | influence of co-ingestion of food on bioavailability [2]: not influenced
